{"source": "patent US9474277B2", "about": "“Pyrazole compound and pesticidal mixtures comprising a pyrazole compound” (BASF SE, priority 2012, dated 2016)", "key": {"[1]": {"system": "Rice Plant Hopper (Nilaparvata lugens)", "experiment": "B.7 Rice plant hopper test on sprayed rice seedlings", "type": "in vivo", "conditions": "500 ppm, after 72 hours", "description": "B.7 Rice Plant Hopper (Nilaparvata lugens)\n(§1) Rice seedlings were cleaned and washed 24 hours before spraying. The active compounds were formulated in 50:50 acetone: water and 0.1% vol/vol surfactant (EL 620) was added. Potted rice seedlings were sprayed with 5 ml test solution, air dried, placed in cages and inoculated with 10 adults. Treated rice plants were kept at 28-29° C. and relative humidity of 50-60%. Percent mortality was recorded after 72 hours."}, "[2]": {"system": "Rice Green Leafhopper (Nephotettix virescens)", "experiment": "B.9 Rice green leafhopper test on sprayed rice seedlings", "type": "in vivo", "conditions": "500 ppm, after 72 hours", "description": "B.9 Rice Green Leafhopper (Nephotettix virescens)\nas §1, with “water,” for “water”"}, "[3]": {"system": "Blumeria graminis f. sp. tritici", "experiment": "Test 12 - Control of powdery mildew on wheat, seed treatment", "type": "in vivo", "conditions": "single active, untreated 82% disease", "description": "Test 12—Control of Powdery Mildew on Wheat Caused by Blumeria graminis f. sp. tritici\nSeeds of wheat were treated in a treater as standard equipment. The products and concentrations are listed below. At the same day the plants were seeded in pots. 14 days later at 19° C. and 70% humidity the plants were inoculated with spores of Blumeria graminis f. sp. tritici (=syn. Erysiphe garminis f. sp. tritici) by shaking heavily infestated stock plants over the treated pots. After cultivation in the greenhouse for 7 days at 22-26° C. and a relative humidity between 60 to 90% the extent of fungal attack on the leaves was visually assessed as % diseased leaf area."}, "[4]": {"system": "Rhizoctonia solani", "experiment": "Test 10 - Control of Rhizoctonia solani, corn seed treatment, plant height", "type": "in vivo", "conditions": "single active compound, 14 days", "description": "Test 10—Control of Rhizoctonia solani\nThe compounds were dissolved in Acetone. Seeds of com were treated in a treater as standard equipment. The products and concentrations are listed below. After the treatment the seeds were sown in pots, and rye seeds (infected with Rhizoctonia solani) were placed next to the seeds (1 seed per corn seed).\nAfter cultivation in the greenhouse for 14 days at 20° C. and a relative humidity of 70% the plant height of the plants were measured."}, "[5]": {"system": "Altemaria solani", "conditions": "single active compound, 7 days after inoculation"}, "[6]": {"system": "Greenbug Aphid, Schizaphis graminum", "experiment": "Test 13 - Activity against greenbug aphid, wheat seed treatment", "type": "in vivo", "conditions": "single active, aphids counted 4 DAI", "description": "Test 13—Activity Against Greenbug Aphid, Schizaphis graminum: Wheat seed treatment\nTechnical material was dissolved in acetone at sub-lethal doses. 50 μL of solution was added to a 20-ml scintillation vial, 15 wheat seeds were added, and the seeds were coated by vortexing the vial for 1 minute. The seeds were allowed to dry and planted later the same day. Seeds were planted individually in a moistened, fertilized soil mixture of 1:1 North Carolina loamy sand (Sandhill soil):play sand in 40.32 cm^2 pots. Pots were arranged in a randomized complete block design in the greenhouse and top-watered daily. Plant emergence and shoot phytotoxicity were evaluated 4, 7, and 14 days after treatment (DAT). At 14 DAT (true leaf stage), each plant was infested with 10 greenbug aphids (Schizaphis graminum) of mixed stages. Plants were maintained on light carts in a randomized complete block design and bottom-watered as needed. Twelve replicates (pots) were prepared for plant emergence and five replicates were prepared for infestation. Live aphids were counted 4 DAI and the mean percent population reduction relative to the solvent blank control was calculated."}, "[7]": {"system": "Puccinia recondita", "experiment": "Test 11 - Control of brown rust on wheat, seed treatment", "type": "in vivo", "conditions": "single active, untreated 90% disease", "description": "Test 11—Control of Brown Rust on Wheat Caused by Puadnia recondita\nSeeds of wheat were treated in a treater as standard equipment. The products and concentrations are listed below. At the same day the plants were seeded in pots. 14 days later at 19° C. and 70% humidity the plants were inoculated with spores of Puccinia recondita. To ensure the success the artificial inoculation, the plants were transferred to a humid chamber without light and a relative humidity of 95 to 99% and 20 to 24° C. for 24 h. Then the trial plants were cultivated for 6 days in a greenhouse chamber at 20-24° C. and a relative humidity between 65 and 70%. The extent of fungal attack on the leaves was visually assessed as % diseased leaf area."}}, "note": "Where two headings read alike, the source gives them in different places."}
{"smiles": "CCN(C(=O)c1cnn(C2CC3(C2)OCCO3)c1C)c1ccnnc1", "note": "[Compound C-15]", "values": [{"measurement": "mortality in comparison with untreated controls", "setting": "[1]", "value": 75, "unit": "%"}]}
{"smiles": "CCN(C(=O)c1cnn(C(C)C2CC23CC3)c1C)c1ccnnc1", "note": "(stereo not shown) [Compound C-26]", "values": [{"measurement": "mortality in comparison with untreated controls", "setting": "[2]", "value": "at least 75%"}]}
{"smiles": "CCN(C(=O)c1cnn(C(C)C(C)C)c1C)c1ccnnc1", "note": "(stereo not shown) [Compound I-674]", "values": [{"measurement": "Observed efficacy (%)", "setting": "[3]; 4 g a.i./100 kg seeds", "value": 9, "unit": "%"}, {"measurement": "Observed efficacy (%)", "setting": "[3]; 250 g a.i./100 kg seeds", "value": 21, "unit": "%"}, {"measurement": "Observed efficacy (%)", "setting": "[4]; 63 g a.i./100 kg seeds", "value": 5, "unit": "%"}, {"measurement": "Observed efficacy", "setting": "[5]; 63 ppm", "value": 1, "unit": "%"}, {"measurement": "Observed efficacy (%)", "setting": "[6]; table with fungicides F.1 to F.11, 33.7 g a.i./100 kg seeds", "value": 21, "unit": "%"}, {"measurement": "Observed efficacy (%)", "setting": "[6]; table with insecticides A.1 to A.17, 33.7 g a.i./100 kg seeds", "value": 28, "unit": "%"}, {"measurement": "Observed efficacy (%)", "setting": "[7]; 250 g a.i./100 kg seeds", "value": 0, "unit": "%"}]}
{"smiles": "CCN(C(=O)c1cnn(C(C)C(F)F)c1C)c1ccnnc1", "note": "(stereo not shown) [Compound I-680]", "values": [{"measurement": "Observed efficacy (%)", "setting": "[3]; 250 g a.i./100 kg seeds", "value": 15, "unit": "%"}, {"measurement": "Observed efficacy (%)", "setting": "[4]; 63 g a.i./100 kg seeds", "value": 0, "unit": "%"}, {"measurement": "Observed efficacy", "setting": "[5]; 63 ppm", "value": 3, "unit": "%"}, {"measurement": "Observed efficacy (%)", "setting": "[6]; table with fungicides F.1 to F.11, 2.9 g a.i./100 kg seeds", "value": 7, "unit": "%"}, {"measurement": "Observed efficacy (%)", "setting": "[6]; table with insecticides A.1 to A.17, 2.9 g a.i./100 kg seeds", "value": 23, "unit": "%"}, {"measurement": "Observed efficacy (%)", "setting": "[7]; 250 g a.i./100 kg seeds", "value": 0, "unit": "%"}]}
{"smiles": "CCN(C(=O)c1cnn(C(C)C2(C#N)CC2)c1C)c1ccnnc1", "note": "(stereo not shown) [Compound I-698]", "values": [{"measurement": "Observed efficacy (%)", "setting": "[3]; 250 g a.i./100 kg seeds", "value": 15, "unit": "%"}, {"measurement": "Observed efficacy (%)", "setting": "[4]; 250 g a.i./100 kg seeds", "value": 3, "unit": "%"}, {"measurement": "Observed efficacy", "setting": "[5]; 1 ppm", "value": 7, "unit": "%"}, {"measurement": "Observed efficacy", "setting": "[5]; 63 ppm", "value": 3, "unit": "%"}, {"measurement": "Observed efficacy (%)", "setting": "[6]; table with fungicides F.1 to F.11, 150 g a.i./100 kg seeds", "value": 51, "unit": "%"}, {"measurement": "Observed efficacy (%)", "setting": "[6]; table with insecticides A.1 to A.17, 150 g a.i./100 kg seeds", "value": 74, "unit": "%"}, {"measurement": "Observed efficacy (%)", "setting": "[7]; 63 g a.i./100 kg seeds", "value": 4, "unit": "%"}]}
{"smiles": "N#Cc1c[nH]cc1-c1cccc2c1OC(F)(F)O2", "note": "[Fludioxonil, 4-(2,2-difluorobenzo[1,3]dioxol-4-yl)-1H-pyrrole-3-carbonitrile, reference compound]", "values": [{"measurement": "Observed efficacy", "setting": "[5]; 0.063 ppm", "value": 26, "unit": "%"}]}
{"smiles": "Cn1cc(C(=O)Nc2ccccc2-c2cc(F)c(F)c(F)c2)c(C(F)F)n1", "note": "[Fluxapyroxad, reference compound]", "values": [{"measurement": "Observed efficacy (%)", "setting": "[4]; 4 g a.i./100 kg seeds", "value": 74, "unit": "%"}, {"measurement": "Observed efficacy (%)", "setting": "[6]; table with fungicides F.1 to F.11, 20 g a.i./100 kg seeds", "value": 0, "unit": "%"}, {"measurement": "Observed efficacy (%)", "setting": "[7]; 1 g a.i./100 kg seeds", "value": 16, "unit": "%"}]}
{"smiles": "COCC(=O)N(c1c(C)cccc1C)[C@H](C)C(=O)OC", "note": "[Mefenoxam, reference compound]", "values": [{"measurement": "Observed efficacy (%)", "setting": "[3]; 4 g a.i./100 kg seeds", "value": 0, "unit": "%"}, {"measurement": "Observed efficacy (%)", "setting": "[4]; 63 g a.i./100 kg seeds", "value": 0, "unit": "%"}, {"measurement": "Observed efficacy (%)", "setting": "[6]; table with fungicides F.1 to F.11, 15 g a.i./100 kg seeds", "value": 6, "unit": "%"}]}
{"smiles": "COC(=O)N(OC)c1ccccc1COc1ccn(-c2ccc(Cl)cc2)n1", "note": "[Pyraclostrobin, methyl N-{2-[1-(4-chlorophenyl)-1H-pyrazol-3-yloxymethyl]phenyl}(N-methoxy)carbamate, reference compound]", "values": [{"measurement": "Observed efficacy (%)", "setting": "[4]; 63 g a.i./100 kg seeds", "value": 49, "unit": "%"}, {"measurement": "Observed efficacy", "setting": "[5]; 0.016 ppm", "value": 16, "unit": "%"}]}
{"smiles": "c1ccc2[nH]c(-c3cscn3)nc2c1", "note": "[Thiabendazol]", "values": [{"measurement": "Observed efficacy (%)", "setting": "[3]; 250 g a.i./100 kg seeds", "value": 2, "unit": "%"}]}
{"smiles": "CC1(C)CC/C(=C\\c2ccc(Cl)cc2)C1(O)Cn1cncn1", "note": "(stereo not shown) [Triticonazol, (5E)-5-[(4-chlorophenyl)methylene]-2,2-dimethyl-1-(1H-1,2,4-triazol-1-ylmethyl)cyclopentanol, reference compound]", "values": [{"measurement": "Observed efficacy (%)", "setting": "[3]; 16 g a.i./100 kg seeds", "value": 60, "unit": "%"}, {"measurement": "Observed efficacy (%)", "setting": "[4]; 16 g a.i./100 kg seeds", "value": 20, "unit": "%"}, {"measurement": "Observed efficacy", "setting": "[5]; 0.063 ppm", "value": 27, "unit": "%"}, {"measurement": "Observed efficacy (%)", "setting": "[7]; 16 g a.i./100 kg seeds", "value": 49, "unit": "%"}]}
{"smiles": "CNC(=O)c1cc(Cl)cc(C)c1NC(=O)c1cc(Br)nn1-c1ncccc1Cl", "note": "[chloranthraniliprole]", "values": [{"measurement": "Observed efficacy (%)", "setting": "[6]; table with insecticides A.1 to A.17, 75 g a.i./100 kg seeds", "value": 30, "unit": "%"}]}
